Measurements as given in the supplement of paper PMC11451515.

Test system: SEM cells
Test: cell viability relative to DMSO control; higher = less cytotoxic
Conditions: 48 h
Outline: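 NOMO1, SEM and P12-Ichikawa leukemia cells spent at least four passages adapting to each medium before use. They were seeded at 500 cells/well (NOMO1, SEM) or 1000 cells/well (P12-Ichikawa) in 5 μl in 1536-well plates and pin-dosed with library compounds in DMSO at 11 threefold steps from 47 μM down to 0.79 nM. After 48 h at 37°C, CellTiter-Glo One luminescence was read. Viability is reported as a percentage of the DMSO wells on each plate, with cell-free wells as background.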

[1] = HPLM + 10% dialyzed FBS, 0.000781 µM
[2] = HPLM + 10% dialyzed FBS, 0.00234 µM
[3] = HPLM + 10% dialyzed FBS, 0.00702 µM
[4] = HPLM + 10% dialyzed FBS, 0.0211 µM
[5] = HPLM + 10% dialyzed FBS, 0.0632 µM
[6] = HPLM + 10% dialyzed FBS, 0.19 µM
[7] = HPLM + 10% dialyzed FBS, 0.569 µM
[8] = HPLM + 10% dialyzed FBS, 1.71 µM
[9] = HPLM + 10% dialyzed FBS, 5.12 µM
[10] = HPLM + 10% dialyzed FBS, 15.4 µM
[11] = HPLM + 10% dialyzed FBS, 46.1 µM
[12] = RPMI 5 mM glucose + 10% FBS, 0.000781 µM
[13] = RPMI 5 mM glucose + 10% FBS, 0.00234 µM
[14] = RPMI 5 mM glucose + 10% FBS, 0.00702 µM
[15] = RPMI 5 mM glucose + 10% FBS, 0.0211 µM
[16] = RPMI 5 mM glucose + 10% FBS, 0.0632 µM
[17] = RPMI 5 mM glucose + 10% FBS, 0.19 µM
[18] = RPMI 5 mM glucose + 10% FBS, 0.569 µM
[19] = RPMI 5 mM glucose + 10% FBS, 1.71 µM
[20] = RPMI 5 mM glucose + 10% FBS, 5.12 µM
[21] = RPMI 5 mM glucose + 10% FBS, 15.4 µM
[22] = RPMI 5 mM glucose + 10% FBS, 46.1 µM
[23] = RPMI 5 mM glucose + 10% dialyzed FBS, 0.000781 µM
[24] = RPMI 5 mM glucose + 10% dialyzed FBS, 0.00234 µM
[25] = RPMI 5 mM glucose + 10% dialyzed FBS, 0.00702 µM
[26] = RPMI 5 mM glucose + 10% dialyzed FBS, 0.0211 µM
[27] = RPMI 5 mM glucose + 10% dialyzed FBS, 0.0632 µM
[28] = RPMI 5 mM glucose + 10% dialyzed FBS, 0.19 µM
[29] = RPMI 5 mM glucose + 10% dialyzed FBS, 0.569 µM
[30] = RPMI 5 mM glucose + 10% dialyzed FBS, 1.71 µM
[31] = RPMI 5 mM glucose + 10% dialyzed FBS, 5.12 µM
[32] = RPMI 5 mM glucose + 10% dialyzed FBS, 15.4 µM
[33] = RPMI 5 mM glucose + 10% dialyzed FBS, 46.1 µM

Row | Compound | cell viability [1] | cell viability [2] | cell viability [3] | cell viability [4] | cell viability [5] | cell viability [6] | cell viability [7] | cell viability [8] | cell viability [9] | cell viability [10] | cell viability [11] | cell viability [12] | cell viability [13] | cell viability [14] | cell viability [15] | cell viability [16] | cell viability [17] | cell viability [18] | cell viability [19] | cell viability [20] | cell viability [21] | cell viability [22] | cell viability [23] | cell viability [24] | cell viability [25] | cell viability [26] | cell viability [27] | cell viability [28] | cell viability [29] | cell viability [30] | cell viability [31] | cell viability [32] | cell viability [33]
1 | FC(F)(F)c1ccc(/C=C/c2nc(COc3ccc(CCCCn4ccnn4)cc3)co2)cc1 | 116% | 119% | 123% | 108% | 103% | 111% | 109% | 108% | 103% | 109% | 98.7% | 117% | 103% | 116% | 95.3% | 105% | 78.3% | 104% | 81% | 94.2% | 94.4% | 85.7% | 110% | 124% | 103% | 91.3% | 95.9% | 86% | 82.3% | 84.9% | 79.3% | 70.9% | 84%
2 | C[C@]\12CC[C@H](O)CC1=C/CC3C2CC[C@@]\4(C)C3C\C=C4[N]5C=NC6=C5C=CC=C6 (some centres undefined) | 90.4% | 82.4% | 99.7% | 103% | 61.4% | 97.7% | 109% | 115% | 109% | 114% | 101% | 96.1% | 93.3% | 101% | 121% | 96.6% | 97% | 109% | 115% | 117% | 113% | 104% | 99.8% | 88.9% | 106% | 115% | 102% | 103% | 108% | 119% | 109% | 109% | 112%
3 | CN1[C@@H]2CC(OC(=O)[C@@H](CO)c3ccccc3)C[C@H]1[C@H]1O[C@H]12 (some centres undefined) | 85.3% | 88.7% | 91% | 84.7% | 93.5% | 106% | 102% | 110% | 108% | 102% | 98% | 80.9% | 82.9% | 80.7% | 85% | 90.6% | 113% | 96.2% | 106% | 89.2% | 97% | 97.9% | 90.2% | 88.8% | 105% | 86.3% | 96.3% | 105% | 117% | 114% | 101% | 113% | 108%
4 | NC1(Cc2ccc(Cl)cc2)CCN(c2ncnc3[nH]ccc23)CC1 | 103% | 106% | 96% | 100% | 92.8% | 91.6% | 95.7% | 75.7% | 66.9% | 6.62% | 2.55% | 107% | 117% | 118% | 116% | 112% | 106% | 86.1% | 79.6% | 59.8% | 4.37% | 2.8% | 106% | 98.6% | 99.7% | 92.7% | 81.8% | 83.7% | 82.9% | 74.5% | 54.7% | 6.24% | 2.65%
5 | CCC[C@H](NC(=O)/C(C#N)=C/c1cccc(Br)n1)c1ccccc1 | 121% | 125% | 119% | 26.5% | 124% | 117% | 111% | 124% | 120% | 98.6% | 6.55% | 94.4% | 110% | 104% | 17.6% | 112% | 111% | 102% | 113% | 111% | 57.1% | 7.49% |  |  |  |  |  |  |  |  |  |  | 
6 | CC(C)(C)c1cc(NC(=O)Nc2ccc(-c3cn4c(n3)sc3cc(OCCN5CCOCC5)ccc34)cc2)no1 | 66.8% | 53.7% | 45.8% | 44.3% | 32.2% | 38.2% | 46.6% | 30% | 30.1% | 26.1% | 27.8% | 80.9% | 61.9% | 67.7% | 49.8% | 42.1% | 46.3% | 49.3% | 38.9% | 43.4% | 33.5% | 27.8% | 74.2% | 49.4% | 51.3% | 36.6% | 30.4% | 36% | 31.3% | 33.6% | 27.5% | 23.5% | 24.6%
7 | COc1cccc2cc(-c3nc(C4CCC(C(=O)O)CC4)n4ncnc(N)c34)[nH]c12 (centres undefined) | 118% | 132% | 124% | 107% | 107% | 101% | 74.7% | 36.2% | 28.2% | 22.6% | 16.4% |  |  |  |  |  |  |  |  |  |  |  | 111% | 133% | 118% | 114% | 96% | 99.7% | 89.3% | 52.6% | 31.5% | 22.2% | 15.8%
8 | CCN(CC)CC#CCOC(=O)C(O)(c1ccccc1)C1CCCCC1 (centres undefined) | 108% | 109% | 98.1% | 92.4% | 115% | 111% | 124% | 121% | 105% | 129% | 98.5% | 108% | 117% | 126% | 80% | 115% | 121% | 118% | 120% | 125% | 104% | 102% | 117% | 112% | 145% | 83.3% | 126% | 132% | 142% | 120% | 135% | 129% | 99.3%
9 | OC[C@H]1O[C@@H](O[C@@H]2[C@@H](CO)O[C@](O)(CO)[C@H]2O)[C@H](O)[C@@H](O)[C@H]1O | 103% | 96.4% | 105% | 110% | 113% | 100% | 109% | 108% | 105% | 63.5% | 93.7% | 102% | 85% | 108% | 112% | 94.1% | 97.2% | 102% | 96.2% | 93.3% | 68.9% | 95.8% | 95.6% | 82.5% | 102% | 116% | 101% | 105% | 94.6% | 106% | 82.8% | 72.2% | 96.4%
10 | Cc1c(CN2CCN(C(=O)[C@H](C)O)CC2)sc2c(N3CCOCC3)nc(-c3cnc(N)nc3)nc12 | 98% | 63.4% | 78.2% | 79% | 70.5% | 67.7% | 55.4% | 38.5% | 35.8% | 36.1% | 31.3% | 96.8% | 70% | 95.4% | 80.9% | 84.6% | 80.1% | 56.3% | 34.3% | 34.3% | 36.8% | 27.3% | 90.4% | 54.8% | 87.4% | 82.4% | 67% | 78.6% | 48.2% | 41.3% | 36.6% | 34.6% | 30.5%
11 | CN1[C@@H]2CC[C@H]1CC(OC(=O)c1c[nH]c3ccccc13)C2 (some centres undefined) | 111% | 109% | 118% | 25.9% | 130% | 130% | 126% | 117% | 114% | 114% | 124% | 113% | 115% | 124% | 17.8% | 123% | 116% | 111% | 119% | 137% | 98.6% | 93.6% |  |  |  |  |  |  |  |  |  |  | 
12 | CC1(C)CCC[C@]2(C)[C@H]3CC(=O)O[C@]3(C)CC[C@@H]12 | 101% | 103% | 102% | 116% | 119% | 95.2% | 116% | 118% | 115% | 101% | 93.3% | 110% | 114% | 106% | 107% | 106% | 115% | 119% | 115% | 112% | 82.2% | 100% | 114% | 106% | 116% | 126% | 104% | 112% | 121% | 111% | 119% | 79.2% | 99.1%
13 | CCCCCOC(=O)NC\1=N\C(=O)N(\C=C1F)[C@@H]2O[C@H](C)[C@@H](O)[C@H]2O | 94% | 111% | 116% | 125% | 109% | 112% | 120% | 114% | 106% | 101% | 100% | 104% | 89.8% | 95.7% | 109% | 107% | 88.7% | 98.1% | 98.1% | 98.4% | 94.4% | 85.8% | 96.6% | 92.1% | 105% | 95.9% | 106% | 109% | 95.6% | 108% | 96.8% | 93.7% | 86.2%
14 | C\C1=C\C(=O)OC2=C1C=CC(=C2)O | 120% | 114% | 126% | 119% | 118% | 119% | 128% | 77.1% | 122% | 111% | 109% | 98.1% | 118% | 108% | 104% | 118% | 110% | 118% | 87.3% | 108% | 97.1% | 92.1% | 120% | 119% | 146% | 136% | 135% | 117% | 114% | 75.2% | 117% | 117% | 115%
